Tests used:
[1] = Shampooing-fastness test of dyed hair; type: physicochemical, human; settings: for Color Difference (ΔE*): before vs after test; for Color Difference (ΔE*) / Residual Ratio %: 5 cycles; for Residual Ratio %: dyeing density after test to before test
Protocol: The test sample with Yellow 29 prepared in Example 1 was tested according to the shampooing-fastness test mentioned below, and the dyeing density (K/Sd) and color difference (ΔE*) before and after the test were determined. In the Table, the residual ratio (%) means the ratio of the dyeing density after the test to the dyeing density before the test.
The test sample was subjected to a cycle operation of (1) shampooing followed by (2) treatment as mentioned below, repeatedly five times in all, and then spontaneously dried at room temperature (about 20° C.).
Shampoo liquid: aqueous 5% sodium laurylsulfate solution
Bath ratio: 1/10 (mass of shampooing liquid relative to 1 g mass of dyed hair)
Processing temperature: 45° C.
Processing time: 20 minutes
Post-treatment: rinsing with water
Treatment liquid: aqueous 5% trimethylstearylammonium chloride solution
Bath ratio: 1/10 (mass of treatment liquid relative to 1 g mass of dyed hair)

[2] = Light-fastness test of dyed hair (xenon fade meter); type: physicochemical, human; settings: 330 W/m^2, 20 hours; for Color Difference (ΔE*): before vs after test; for Residual Ratio %: dyeing density after test to before test
Protocol: A composition for hair dyeing having a pH of 6 was prepared according to the compounding formation as shown in Table 6 by using Yellow 29 as the dye. By using the thus-prepared composition for hair dyeing, a test sample was prepared according to the same method as in Example 1. The resultant test sample was exposed to white light at an irradiation dose of 330 W/m^2 for 20 hours, by using a xenon long-life fade meter light-fastness tester Suga Test Instrument, FAL-25AX-HC-BEC Model), and the dyeing density (K/Sd) and the color values (L*, a*, b*) before and after the test, and the color difference (ΔE*) were determined. The light-fastness test was carried out under the condition where the temperature of the test sample could be from 60 to 66° C.

Structure (SMILES)	Color Difference (ΔE*) [1]	Residual Ratio % [1] [%]	light-fastness [2]	Color Difference (ΔE*) [2]	Residual Ratio % [2] [%]	shampooing-fastness ([1]; compared with Yellow 87)
CN(/N=C\c1cc[n+](C)cc1)c1ccccc1 [Yellow 87, C.I. Basic Yellow 87, reference compound]	21.8	33	–	–	–	–
Cc1ccc(N(C)/N=C/C2=[N+](C)c3ccccc3C2(C)C)cc1 [Yellow 29, C. I. Basic Yellow 29]	6.6	82	excellent	2.8	89	extremely excellent
Cc1nn(-c2ccccc2)c(O)c1/N=N/c1cccc([N+](C)(C)C)c1.[Cl-] [Yellow 57, C.I. Basic Yellow 57, reference compound]	–	–	low	10.2	98	–
